Where “and” joins values, the source holds several entries; their conditions need not be identical. Equal values may be shown once. Read-outs that look alike come from different tables or passages of the source.

Experiment [1] has as its system CABG patients (saphenous-vein coronary-artery bypass grafts). The experiment can be described thus: Post-CABG Trial: angiographic graft worsening under lovastatin (aggressive vs moderate) and warfarin. In kind it is in vivo, human. As to the method:
A genetic association study was conducted by a within-case comparison ancillary to the Post Coronary Artery Bypass Graft Trial. (The Post Coronary Artery Bypass Graft Trial Investigators. The effect of aggressive lowering of low-density lipoprotein cholesterol levels and low-dose anticoagulation on obstructive changes in saphenous-vein coronary-artery bypass grafts, N. Engl. J. Med. 336:153-62 [1997]). A two stage design was followed. First, EBV-transformed lymphoblastoid cell lines were established for subjects from the Los Angeles (L.A.) cohort providing a permanent source of DNA for testing hypotheses related to atherosclerosis-related candidate genes. Then, significant results were tested in a second stage by genotyping all available subjects in the post-CABG trial using DNA isolated from whole blood shipped to Cedars-Sinai Medical Center from the other participating centers.
(§1) Participants were randomly assigned, following a two by two design, to receive 1) lovastatin therapy to lower the LDL-cholesterol level to within the range of 93-97 mg/dl (aggressive treatment group) or 132-136 mg/dl (moderate treatment group), and 2) placebo or low-dose warfarin (Post-CABG, 1997). Coronary angiograms of 1351 subjects at enrollment and an average of 4.3 years later were compared using a quantitative assessment of the severity of graft stenosis. Graft worsening was defined as a decrease in lumen diameter of 0.6mm or more. The percentage of subjects with worsening of one or more grafts was 39% in the aggressive treatment group compared to 51% in the moderate treatment group (p<0.00 1) and the mean percentage of grafts per patient showing worsening was 27% in the aggressive treatment group compared to 39% in the moderate treatment group (p<0.001).
(§2) A total of 1351 subjects from seven clinical centers throughout North America were included in the clinical trial and all were eligible as participants. Genetic material was received from 891 subjects who were included in this ancillary study. Inclusion criteria for the clinical trial were: bypass surgery 1 -11 years prior to the study; an LDL-cholesterol level of 130-175 mg/dl; and at least one patent vein graft as determined by angiography. Subjects were excluded if there was: (a) the likelihood of revascularization or death within the study period of 5 years; (b) unstable angina or myocardial infarction within six months before the start of the trial; (c) severe angina; (d) heart failure; or (e) contraindications to the study medications. Id. Subjects were randomly assigned in a two by two factorial design for treatment to lower LDL-cholesterol levels aggressively (target LDL 93-97 mg/dl) or moderately (target LDL 132-136 mg/dl) with lovastatin and cholestyramine if needed, and for treatment with either placebo or warfarin sufficient to maintain an international normalized ratio of less than 2. Id. Graft worsening was determined by comparing the initial angiogram at enrollment with a follow-up angiogram repeated an average of 4.3 years later. “Worsening” was defined as a reduction in diameter ≧0.6mm in diameter. “Subjects with worsening” were defined as those subjects with one or more grafts showing worsening.
Differences in baseline characteristics between treatment groups and between genotype groups were tested by one-way analysis of variance or Chi-square tests. Log-transformed HDL and TG values were used to perform all statistical analyses in order to adjust for their skewed distributions, but are presented in the tables as untransformed means ±SE. The association between graft worsening and LPL genotype was tested by Chi-square test. Mantel-Haenszel statistics were used for testing the interactions between genotypes and treatment groups. The proportion of grafts showing worsening per subject was used as the quantitative measurement of graft worsening, and multiple regression was performed to for this proportion as a function of genotype and treatment group to identify predictors. […]

In a further experiment the test system is CABG patients. Nature of the experiment: Post-CABG Trial: serum lipid levels and lovastatin dose needed, by treatment group or LPL HindIII genotype. It is filed as in vivo, human. As to the method:
as §1, §2
Differences in baseline characteristics between treatment groups and between genotype groups were tested by one-way analysis of variance or Chi-square tests. Log-transformed HDL and TG values were used to perform all statistical analyses in order to adjust for their skewed distributions, but are presented in the tables as untransformed means ±SE. The association between graft worsening and LPL genotype was tested by Chi-square test. Mantel-Haenszel statistics were used for testing the interactions between genotypes and treatment groups. The proportion of grafts showing worsening per subject was used as the quantitative measurement of graft worsening, and multiple regression was performed to for this proportion as a function of genotype and treatment group to identify predictors. Adjusted variables for this trait included age, gender, body mass index, smoking status, number of years since CABG, systolic and diastolic blood pressure, current medicine use, and family history as listed in Table 1. All statistical analyses were carried out with SAS software (version 6.12, SAS Institute, Cary, N.C.).
To investigate potential mechanisms for the association between the LPL HindIII 2/2 genotype and graft worsening, baseline characteristics and response of the subjects to the lipid-lowering action of lovastatin were compared between subjects (Table 3). There were no differences observed between the baseline values for total cholesterol, HDL-cholesterol, and triglycerides. However, a small difference in LDL-cholesterol was observed, 159.6±2.1 mg/dl for subjects with HindIII 2/2 compared with 155.0±0.7 for 1/1 and 1/2, p=0.04. […]

Experiment [2] relates to CABG patients (saphenous-vein coronary-artery bypass grafts). The settings on record: cited from earlier work; for percentage of subjects with worsening of one or more grafts: 1351 subjects, average 4.3 years.
Where [3] appears, read: Aggressive treatment group (N = 430), mean ± SE.
The mark [4] stands for this setting: LPL HindIII 1/1 & 1/2 genotype (N = 817).
Setting [5] is: LPL HindIII 2/2 genotype (N = 74).
[6] abbreviates: Moderate treatment group (N = 406), mean ± SE.

For `CC[C@H](C)C(=O)O[C@H]1C[C@@H](C)C=C2C=C[C@H](C)[C@H](CC[C@@H]3C[C@@H](O)CC(=O)O3)[C@H]21` [lovastatin], the “percent of subjects with graft worsening” value in experiment [1] (HindIII 1/1 and 1/2 genotype, moderate drug treatment group) was 49%; in experiment [1] (HindIII 1/1 or 1/2 genotype, aggressive lipid-lowering treatment group) it was 35%; in experiment [1] (HindIII 2/2 genotype, aggressive treatment group), 54%; in experiment [1] (HindIII 2/2 genotype, moderate lipid-lowering treatment group), 65%. The “odds ratio for graft worsening, combined unfavorable LPL HindIII genotype with moderate drug treatment” value in experiment [1] (HindIII 2/2 plus moderate lipid-lowering, 95% CI 1.4-8.7) is recorded as 3.5. Also, the “odds ratio, effect of treatment on graft worsening” value in experiment [1] (adjusted for / stratified by LPL HindIII genotype, 95% CI 1.32-2.4) was 1.78 and 1.8. The “odds ratio for graft worsening, moderate vs aggressive drug treatment” value in experiment [1] (within LPL HindIII 1/1 and 1/2 genotype group, 95% CI 1.3 to 2.4) is on record as 1.8. Also, the “Steady state lipid levels: HDL cholesterol” value in the experiment on CABG patients (setting [3]) was found to be 44.9 ± 0.6 mg/dL; in the experiment on CABG patients (setting [4]), 44.1 ± 0.4 mg/dL; in the experiment on CABG patients (setting [5]), 46.7 ± 1.6 mg/dL; in the experiment with CABG patients (setting [6]) it was 43.7 ± 0.6 mg/dL. Further, the “Steady state lipid levels: LDL cholesterol” value with CABG patients (setting [3]) was found to be 97.1 ± 1.3 mg/dL; with CABG patients (setting [4]), 114.7 ± 1.1 mg/dL; with CABG patients (setting [5]) it was 115.1 ± 4.3 mg/dL; with CABG patients (setting [6]), 133.0 ± 1.3 mg/dL. Besides, the “Steady state lipid levels: Total cholesterol” value in the experiment with CABG patients (setting [3]) was determined as 172.6 ± 1.6 mg/dL; with CABG patients (setting [4]), 191.0 ± 1.3 mg/dL; in the experiment on CABG patients (setting [5]), 191.1 ± 4.8 mg/dL; in the experiment with CABG patients (setting [6]) it was 209.5 ± 1.6 mg/dL. Besides, the “Steady state lipid levels: Triglycerides” value in the experiment on CABG patients (setting [3]) amounted to 157.4 ± 4.5 mg/dL; with CABG patients (setting [4]), 163.6 ± 3.4 mg/dL; in the experiment with CABG patients (setting [5]), 151.0 ± 9.6 mg/dL; in the experiment with CABG patients (setting [6]), 164.5 ± 4.4 mg/dL. The “Lipid change: HDL cholesterol” value turned out to be 14.2 ± 1.0% in the experiment on CABG patients (setting [4]) and 14.1 ± 3.1% with CABG patients (setting [5]). The entries for the “Lipid change: LDL cholesterol” value in the experiment with CABG patients (setting [4]) and in the experiment on CABG patients (setting [5]) were 45.1 ± 1.5% and 53.5 ± 6.9%, respectively. For the same compound, the entries for the “Lipid change: Total cholesterol” value with CABG patients (setting [4]) and in the experiment with CABG patients (setting [5]) were 15.2 ± 0.6% and 16.9 ± 2.0%, respectively. In addition, the “Lipid change: Triglycerides” value came to 8.2 ± 2.0% in the experiment on CABG patients (setting [4]) and 6.0 ± 5.8% in the experiment on CABG patients (setting [5]). Moreover, the “percentage of patients with atherosclerotic worsening of grafts within 4 years” value in experiment [2] (aggressive lovastatin treatment (LDL-C lowered to 93-97 mg/dl)) is on record as 39%; in experiment [2] (moderate lovastatin treatment (LDL-C lowered to 132-136 mg/dl)), 51%. Also, the “percentage of subjects with worsening of one or more grafts” value in experiment [2] (aggressive treatment group, worsening = lumen diameter decrease 0.6 mm or more) is 39%; in experiment [2] (moderate treatment group), 51%. In addition, the “mean percentage of grafts per patient showing worsening” value in experiment [2] (aggressive treatment group) was 27%; in experiment [2] (moderate treatment group) it was 39%. Also, the “number of patients who required a second CABG procedure, lower than in moderate-treatment group” value in experiment [2] (aggressive vs moderate lovastatin treatment group) is recorded as 29%.
Take `CC(=O)CC(c1ccccc1)c1c(O)c2ccccc2oc1=O` (stereo not drawn) [warfarin]: the “effect of the warfarin treatment on graft worsening” value in experiment [2] (low-dose warfarin vs placebo) is recorded as “No effect”.
